{"source": "paper PMC9019100", "about": "“Development of NanoLuc-targeting protein degraders and a universal reporter system to benchmark tag-targeted degradation platforms” (Nature Communications, 2022)", "key": {"[1]": {"target": "T1, Halo-EGFP-NanoLuc-FKBP^F36V (H-E-N-F) fusion protein (UniProt P0A3G2+P62942+Q9GV45, A155T/A167V/A172T/A224E/A31E/A60N/A81I/C128F/C176G/D78G/E160K/E257K/F37V/F95D/H272N/I117V/K175M/K195N/K70R/L47V/L54V/L88M/L99Q/M102K/N193R/N227D/P142E/P291S/Q151K/Q38R/Q45L/S2A/S58T/T264A/V71I/Y165I/Y273L/Y87F)", "type": "cell-based", "conditions": "+dox; for Blank corrected (470-80) luminescence: single well replicates; for Blank corrected Raw Data (470-80): PROTAC 500nM, replicate wells"}, "Fibrillarin-Halo": {"target": "T2, Fibrillarin-Halo (Rhodococcus rhodochrous, UniProt P0A3G2, A155T/A167V/A172T/A224E/C128F/C176G/D78G/E160K/E257K/H272N/K175M/K195N/L47V/L88M/N227D/P291S/S2A/S58T/T264A/Y273L/Y87F)", "T2 construct": "endogenous in cells; host or cells: 293T, CRISPR/PITCh knock-in at the FBL locus", "T2 sequence (P0A3G2 other isoform, or with tags, fused parts or gaps with the stated changes)": "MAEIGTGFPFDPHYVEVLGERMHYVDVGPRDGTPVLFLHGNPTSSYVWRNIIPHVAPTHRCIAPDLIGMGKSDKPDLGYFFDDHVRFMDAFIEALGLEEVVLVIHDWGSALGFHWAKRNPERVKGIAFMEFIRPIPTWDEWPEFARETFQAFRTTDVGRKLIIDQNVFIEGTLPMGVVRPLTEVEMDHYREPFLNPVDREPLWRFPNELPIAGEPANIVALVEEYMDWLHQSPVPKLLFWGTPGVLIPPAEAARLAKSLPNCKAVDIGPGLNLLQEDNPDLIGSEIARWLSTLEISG", "type": "cell-based", "conditions": "500 nM, 10 h"}, "[2]": {"tested_on": "MLKL^−/− HT29 cells expressing MLKL-Halo", "type": "cell-based", "experimental": "(§1) Cell death was assessed by flow cytometric analysis of PI exclusion. […] Cell death was assessed by flow cytometric analysis of PI exclusion. […] Cell death was assessed by flow cytometric analysis of PI exclusion. e N = 4, f N = 3 independent experiments (symbols), EB represent mean ± SD. g Western from MLKL^−/−CASP8^−/− HT29 cells stably expressing the doxycycline-inducible C-terminal fusion protein, MLKL-NanoLuc (MLKL-NLuc) and constitutively expressing the C-terminal fusion protein caspase-8-FKBP^F36V. […] Cell death was assessed using an IncuCyte and Cytotox-Red uptake. N = 3 independent experiments, one representative experiment shown, EB represent mean ± SD."}, "[3]": {"tested_on": "MLKL^−/− HT29 cells expressing untagged MLKL", "type": "cell-based", "experimental": "as §1"}, "wild-type HT29 cells": {"tested_on": "wild-type HT29 cells", "assay": "Necroptosis assay (PI exclusion, flow cytometry), wild-type HT29 cells, TNF+SM+IDN", "type": "cell-based, human", "conditions": "sheet S5H", "method": "To simulate necroptosis, cells were seeded into 96-well plates ±40 ng/mL doxycycline, to induce construct expression, and treated with 100 ng/mL FLAG-TNF (recombinant human, in-house), 500 nM compound A Smac mimetic (kindly gifted by TetraLogics Pharmaceuticals) and 5 μM IDN-6556 (Cayman) or 10 uM Z-VAD-fmk (Selleckchem) overnight (16–24 h). Degrader compounds or a DMSO vehicle control were added for 5 h, as stated in the Fig. legends. Cells were detached using Trypsin-EDTA (Merck) and resuspended in cell supernatants containing 10 μg/mL propidium iodide (PI). PI exclusion analysis was performed using an LSR II flow cytometer (Becton Dickinson, NJ) with 10,000 single-cell events per sample. Flow cytometry data were analysed using WEASEL version 2.7 software (Frank Battye).\nSupplementary Figure 5. […]\nNC4. Data are representative of N = 3 independent experiments. f-h. HT29 cells were stimulated with DMSO (control) or 500 nM of degrader for 5 hours before the addition of TNF (100 ng/mL) + Smac mimetic (compound A; 500 nM-1 µM) + caspase inhibitor; Emricasan (IDN) (5 µM), for 24 hours. Cell death was assessed by flow cytometric analysis of PI exclusion. N = 3 replicates (symbols) is shown, EB; mean ± SD. Data are representative of N = 3 independent experiments. i. Representative flow cytometry gating strategy. Source data are provided as a Source Data file."}, "[4]": {"target": "T1, Halo-EGFP-NanoLuc-FKBP^F36V (H-E-N-F) fusion protein", "type": "cell-based", "set-up": "expressed in transfected cells; host or cells: immortalized mouse dermal fibroblasts (iMDFs), ubiquitin promoter, constitutive", "conditions": "500 nM; 24 or 48 h after removal"}}, "note": "Where “and” joins values, the source holds several entries; their conditions need not be identical. Identical values can stand only once. Like-named read-outs stand apart in the source and are kept apart here.", "data": [{"smiles": "Cc1ncsc1-c1ccc(CNC(=O)[C@@H]2C[C@@H](O)CN2C(=O)[C@@H](NC(=O)C2(C#N)CC2)C(C)(C)C)c(OCCOCCOCCOCCCCCCCl)c1", "note": "[HV2]", "values": [{"measurement": "Blank corrected (470-80) luminescence", "setting": "[1]; 3.9nM PROTAC", "result": "79470 and 68951 and 78183 and 76420"}, {"measurement": "Blank corrected (470-80) luminescence", "setting": "[1]; 7.8nM PROTAC", "result": "72797 and 64329 and 67516 and 60174"}, {"measurement": "Blank corrected (470-80) luminescence", "setting": "[1]; 31.25nM PROTAC", "result": "46917 and 44939 and 48832 and 45085"}, {"measurement": "Blank corrected (470-80) luminescence", "setting": "[1]; 62.5nM PROTAC", "result": "40512 and 37700 and 38124 and 40329"}, {"measurement": "Blank corrected (470-80) luminescence", "setting": "[1]; 250nM PROTAC", "result": "30717 and 30890 and 31914 and 28801"}, {"measurement": "Blank corrected (470-80) luminescence", "setting": "[1]; 500nM PROTAC, 5h", "result": "69924 and 50626 and 73472 and 59650"}, {"measurement": "Blank corrected (470-80) luminescence", "setting": "[1]; 500nM PROTAC, 8h", "result": "70698 and 62420 and 68286 and 57616"}, {"measurement": "Blank corrected (470-80) luminescence", "setting": "[1]; 500nM PROTAC, 24h", "result": "56615 and 44142 and 53902 and 55861"}, {"measurement": "Blank corrected (470-80) luminescence", "setting": "[1]; 500nM PROTAC", "result": "27860 and 28299 and 29718 and 30521"}, {"measurement": "Blank corrected (470-80) luminescence", "setting": "[1]; 1uM PROTAC", "result": "27861 and 28948 and 28638 and 31530"}, {"measurement": "Blank corrected Raw Data (470-80)", "setting": "[1]; DMSO (control) co-treatment", "result": "30990 and 24165 and 26494 and 23014"}, {"measurement": "Blank corrected Raw Data (470-80)", "setting": "[1]; co-treatment with MG132 (10uM)", "result": "55749 and 70265 and 64908 and 78527"}, {"measurement": "Dmax (densitometry)", "setting": "Fibrillarin-Halo", "result": "~ 94.8%"}, {"measurement": "TNF+911+zVAD (PI exclusion)", "setting": "[2]", "result": "75.3 and 62.1 and 72"}, {"measurement": "concentration required to maintain cell survival", "setting": "[2]", "result": 125, "unit": "nM"}, {"measurement": "TNF+911+zVAD (PI exclusion)", "setting": "[2]; MLKL-/- + MLKL HALO, TNF+911+zVAD, degrader 3.9nM, replicate columns", "result": "6.8 and 4 and 7.3"}, {"measurement": "TNF+911+zVAD (PI exclusion)", "setting": "[2]; MLKL-/- + MLKL HALO, TNF+911+zVAD, degrader 7.8nM, replicate columns", "result": "6.9 and 4.5 and 9.3"}, {"measurement": "TNF+911+zVAD (PI exclusion)", "setting": "[2]; MLKL-/- + MLKL HALO, TNF+911+zVAD, degrader 31.25nM, replicate columns", "result": "33 and 22.8 and 23.9"}, {"measurement": "TNF+911+zVAD (PI exclusion)", "setting": "[2]; MLKL-/- + MLKL HALO, TNF+911+zVAD, degrader 62.5nM, replicate columns", "result": "77 and 48.6 and 62.6"}, {"measurement": "TNF+911+zVAD (PI exclusion)", "setting": "[2]; MLKL-/- + MLKL HALO, TNF+911+zVAD, degrader 250nM, replicate columns", "result": "88.6 and 71.9 and 68.6"}, {"measurement": "TNF+911+zVAD (PI exclusion)", "setting": "[2]; MLKL-/- + MLKL HALO, TNF+911+zVAD, degrader 500nM, replicate columns", "result": "85.7 and 70.1 and 67.1"}, {"measurement": "TNF+911+zVAD (PI exclusion)", "setting": "[2]; MLKL-/- + MLKL HALO, TNF+911+zVAD, degrader 1000nM, replicate columns", "result": "77.8 and 71.5 and 66.8"}, {"measurement": "TNF+911+zVAD (PI exclusion)", "setting": "[3]", "result": "6.7 and 3.6 and 5.5"}, {"measurement": "TNF+911+zVAD (PI exclusion)", "setting": "[3]; MLKL-/- + MLKL, TNF+911+zVAD, degrader 3.9nM, replicate columns", "result": "7.3 and 3.4 and 6.6"}, {"measurement": "TNF+911+zVAD (PI exclusion)", "setting": "[3]; MLKL-/- + MLKL, TNF+911+zVAD, degrader 7.8nM, replicate columns", "result": "7.3 and 4.5 and 5.7"}, {"measurement": "TNF+911+zVAD (PI exclusion)", "setting": "[3]; MLKL-/- + MLKL, TNF+911+zVAD, degrader 31.25nM, replicate columns", "result": "9.7 and 4.3 and 5.6"}, {"measurement": "TNF+911+zVAD (PI exclusion)", "setting": "[3]; MLKL-/- + MLKL, TNF+911+zVAD, degrader 62.5nM, replicate columns", "result": "7.8 and 3.5 and 5.8"}, {"measurement": "TNF+911+zVAD (PI exclusion)", "setting": "[3]; MLKL-/- + MLKL, TNF+911+zVAD, degrader 250nM, replicate columns", "result": "6.5 and 3.9 and 5.8"}, {"measurement": "TNF+911+zVAD (PI exclusion)", "setting": "[3]; MLKL-/- + MLKL, TNF+911+zVAD, degrader 500nM, replicate columns", "result": "8.6 and 4.3 and 7.2"}, {"measurement": "TNF+911+zVAD (PI exclusion)", "setting": "[3]; MLKL-/- + MLKL, TNF+911+zVAD, degrader 1000nM, replicate columns", "result": "8.3 and 4 and 5.4"}, {"measurement": "viable cells (PI exclusion)", "setting": "wild-type HT29 cells; TNF+SM+IDN", "result": "9.6 and 6.1 and 6.3"}, {"measurement": "viable cells (PI exclusion)", "setting": "wild-type HT29 cells; Untreated (no death stimulus)", "result": "75.8 and 75.3 and 68.5"}, {"measurement": "time up to which degradation was maintained, degrader removed at 5 h", "setting": "[4]", "result": "depletion not maintained"}]}]}
